Consider one compound from patent US8361997B2, “Process for preparing a crystalline form of halobetasol propionate” (Taro Pharmaceutical North America, Inc., priority 2005, dated 2013).

Data set [1] can be described thus: Stability of HPLC sample and standard solutions in diluent. The data set is classed as physicochemical. The note with it: approx. 20 mg in 100 mL diluent (45:55 v/v water and acetonitrile); room temperature for 2 days protected from sunlight. The protocol: Approximately 20 mg of the crystalline halobetasol propionate sample to be assayed, accurately weighed, was transferred into a 100-mL volumetric flask, and the flask was filled to volume with diluent. The solution was sonicated to ensure complete dissolution. The sample solution was stable at room temperature for 2 days protected from sunlight.
Approximately 20 mg of a crystalline halobetasol propionate standard, accurately weighed, was transferred into a 100-mL volumetric flask, and the flask was filled to volume with diluent. The solution was sonicated to ensure complete dissolution. The standard solution was stable at room temperature for 2 days protected from sunlight.

For data set [2] the following is noted: cited from earlier work.

With `CCC(=O)O[C@]1(C(=O)CCl)[C@@H](C)C[C@H]2[C@@H]3C[C@H](F)C4=CC(=O)C=C[C@]4(C)[C@@]3(F)[C@@H](O)C[C@@]21C` [Halobetasol propionate, (6α,11β,16β)-21-chloro-6,9-difluoro-11-hydroxy-16-methyl-17-(1-oxopropoxy)pregna-1,4-diene-3,20-dione], the “stability of the solution” value in data set [1] is reported as “stable”. Moreover, in data set [2] (organic solvents), the “solubility in organic solvents” value is on record as “soluble”. Further, the solubility in water result in data set [2] (water) is recorded as “insoluble”.
